Test: recombinant barcode read abundance after kanamycin selection (control-corrected) (log10(CPM+1)); higher = more efficient recombination; sequences stand for … in AGTGCAGAGAAAATCGGCCAGTTTTCTCTGCCTGCAGTCCGCATGCCGT…ATTTATGCAGCGGACTGCCTTTCTCCCAAAGTGATAAACCGGACAGTATCATGGACCGGTTTTCCCGGTAATCCGTATTTGCAAGGTTGGTTTCACT; site = the 11-nt target
Method in brief: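 In E. coli, a pooled library matched targets to IS621 bridge RNA target-binding loops and was introduced alongside a donor plasmid. Cells went onto chloramphenicol/ampicillin/kanamycin with 0.1 mM IPTG or onto chloramphenicol/ampicillin LB agar as control, in duplicate. Recombination efficiency, from recombinant-junction barcodes as counts per million, is averaged and control-corrected. It is reported as log10(CPM+1).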

Row | Sequence | recombinant barcode read abundance (log10)
1 | CGAGCCCCATGGGTTCTAACCTGTTGCTGAG [CGAGCCCCTCA_LTGcore_CA_RTGcore_CT] (site CGAGCCCCTCA) (LTG core: CA, RTG core: CT) | 1.27
2 | CGAGCCCCATGGGTTCTAACCTGTTGCTGTG [CGAGCCCCTCA_LTGcore_CA_RTGcore_CA] (site CGAGCCCCTCA) (LTG core: CA, RTG core: CA) | 0.111
3 | CGAGCCCCGTGGGTTCTAACCTGTTGCTGCG [CGAGCCCCTCA_LTGcore_CG_RTGcore_CG] (site CGAGCCCCTCA) (LTG core: CG, RTG core: CG) | 0.493
4 | CGAGCCCCTTGGGTTCTAACCTGTTGCTGAA [CGAGCCCCTCA_LTGcore_CT_RTGcore_TT] (site CGAGCCCCTCA) (LTG core: CT, RTG core: TT) | 0.691
5 | CGAGCCCCTTGGGTTCTAACCTGTTGCTGCC [CGAGCCCCTCA_LTGcore_CT_RTGcore_GG] (site CGAGCCCCTCA) (LTG core: CT, RTG core: GG) | 0.235
6 | CGAGCCCCTTGGGTTCTAACCTGTTGCTGCG [CGAGCCCCTCA_LTGcore_CT_RTGcore_CG] (site CGAGCCCCTCA) (LTG core: CT, RTG core: CG) | 0.339
7 | CGAGCCCCTTGGGTTCTAACCTGTTGCTGGA [CGAGCCCCTCA_LTGcore_CT_RTGcore_TC] (site CGAGCCCCTCA) (LTG core: CT, RTG core: TC) | 0.994
8 | CGAGCCCCTTGGGTTCTAACCTGTTGCTGTG [CGAGCCCCTCA_LTGcore_CT_RTGcore_CA] (site CGAGCCCCTCA) (LTG core: CT, RTG core: CA) | 0.176
9 | CGAGCCCGGTGGGTTCTAACCTGTTGCTGAG [CGAGCCCCTCA_LTGcore_GG_RTGcore_CT] (site CGAGCCCCTCA) (LTG core: GG, RTG core: CT) | 0.223
10 | CGAGCCCGTTGGGTTCTAACCTGTTGCTGAC [CGAGCCCCTCA_LTGcore_GT_RTGcore_GT] (site CGAGCCCCTCA) (LTG core: GT, RTG core: GT) | 0.156
11 | CGAGCCCTATGGGTTCTAACCTGTTGCTGTA [CGAGCCCCTCA_LTGcore_TA_RTGcore_TA] (site CGAGCCCCTCA) (LTG core: TA, RTG core: TA) | 0.083
12 | CGAGCCCTCTGGGTTCTAACCTGTTGCTGAG [CGAGCCCCTCA_LTGcore_TC_RTGcore_CT] (site CGAGCCCCTCA) (LTG core: TC, RTG core: CT) | 0.0668
13 | CGAGCCCTGTGGGTTCTAACCTGTTGCTGAG [CGAGCCCCTCA_LTGcore_TG_RTGcore_CT] (site CGAGCCCCTCA) (LTG core: TG, RTG core: CT) | 0.134
14 | CGAGCCCTTTGGGTTCTAACCTGTTGCTGAA [CGAGCCCCTCA_LTGcore_TT_RTGcore_TT] (site CGAGCCCCTCA) (LTG core: TT, RTG core: TT) | 0.0246
15 | CGCGCCCAATGGGTTCTAACCTGTTGCGGAG [CGCGCCCCTCC_LTGcore_AA_RTGcore_CT] (site CGCGCCCCTCC) (LTG core: AA, RTG core: CT) | 0.173
16 | CGCGCCCCTTGGGTTCTAACCTGTTGCGGCT [CGCGCCCCTCC_LTGcore_CT_RTGcore_AG] (site CGCGCCCCTCC) (LTG core: CT, RTG core: AG) | 0.0596
17 | CGCGCCCCTTGGGTTCTAACCTGTTGCGGGA [CGCGCCCCTCC_LTGcore_CT_RTGcore_TC] (site CGCGCCCCTCC) (LTG core: CT, RTG core: TC) | 0.0431
18 | CGCGCCCCTTGGGTTCTAACCTGTTGCGGTG [CGCGCCCCTCC_LTGcore_CT_RTGcore_CA] (site CGCGCCCCTCC) (LTG core: CT, RTG core: CA) | 0.382
19 | CGCGCCCTATGGGTTCTAACCTGTTGCGGTA [CGCGCCCCTCC_LTGcore_TA_RTGcore_TA] (site CGCGCCCCTCC) (LTG core: TA, RTG core: TA) | 0.0456
20 | CGGTCCCAATGGGTTCTAACCTGTTGCCAAG [CGGTCCCCTTG_LTGcore_AA_RTGcore_CT] (site CGGTCCCCTTG) (LTG core: AA, RTG core: CT) | 0.3
21 | CGGTCCCAATGGGTTCTAACCTGTTGCCATT [CGGTCCCCTTG_LTGcore_AA_RTGcore_AA] (site CGGTCCCCTTG) (LTG core: AA, RTG core: AA) | 0.0857
22 | CGGTCCCACTGGGTTCTAACCTGTTGCCAAG [CGGTCCCCTTG_LTGcore_AC_RTGcore_CT] (site CGGTCCCCTTG) (LTG core: AC, RTG core: CT) | 0.0364

Row | Sequence | recombinant barcode read abundance (log10)
23 | CGGTCCCATTGGGTTCTAACCTGTTGCCAAT [CGGTCCCCTTG_LTGcore_AT_RTGcore_AT] (site CGGTCCCCTTG) (LTG core: AT, RTG core: AT) | 0.494
24 | CGGTCCCCATGGGTTCTAACCTGTTGCCAAG [CGGTCCCCTTG_LTGcore_CA_RTGcore_CT] (site CGGTCCCCTTG) (LTG core: CA, RTG core: CT) | 0.51
25 | CGGTCCCCCTGGGTTCTAACCTGTTGCCAGG [CGGTCCCCTTG_LTGcore_CC_RTGcore_CC] (site CGGTCCCCTTG) (LTG core: CC, RTG core: CC) | 0.0887
26 | CGGTCCCCGTGGGTTCTAACCTGTTGCCAAG [CGGTCCCCTTG_LTGcore_CG_RTGcore_CT] (site CGGTCCCCTTG) (LTG core: CG, RTG core: CT) | 0.38
27 | CGGTCCCCTTGGGTTCTAACCTGTTGCCAGA [CGGTCCCCTTG_LTGcore_CT_RTGcore_TC] (site CGGTCCCCTTG) (LTG core: CT, RTG core: TC) | 0.0215
28 | CGGTCCCCTTGGGTTCTAACCTGTTGCCAGG [CGGTCCCCTTG_LTGcore_CT_RTGcore_CC] (site CGGTCCCCTTG) (LTG core: CT, RTG core: CC) | 0.129
29 | CGGTCCCCTTGGGTTCTAACCTGTTGCCAGT [CGGTCCCCTTG_LTGcore_CT_RTGcore_AC] (site CGGTCCCCTTG) (LTG core: CT, RTG core: AC) | 0.258
30 | CGGTCCCGATGGGTTCTAACCTGTTGCCAAG [CGGTCCCCTTG_LTGcore_GA_RTGcore_CT] (site CGGTCCCCTTG) (LTG core: GA, RTG core: CT) | 0.197
31 | CGGTCCCGATGGGTTCTAACCTGTTGCCATC [CGGTCCCCTTG_LTGcore_GA_RTGcore_GA] (site CGGTCCCCTTG) (LTG core: GA, RTG core: GA) | 0.3
32 | CGGTCCCGGTGGGTTCTAACCTGTTGCCAAG [CGGTCCCCTTG_LTGcore_GG_RTGcore_CT] (site CGGTCCCCTTG) (LTG core: GG, RTG core: CT) | 0.0912
33 | CGGTCCCGTTGGGTTCTAACCTGTTGCCAAG [CGGTCCCCTTG_LTGcore_GT_RTGcore_CT] (site CGGTCCCCTTG) (LTG core: GT, RTG core: CT) | 0.292
34 | GAGCCCAAATGGGTTCTAACCTGTTGCCTTT [GAGCCCACTAG_LTGcore_AA_RTGcore_AA] (site GAGCCCACTAG) (LTG core: AA, RTG core: AA) | 0.102
35 | GAGCCCAACTGGGTTCTAACCTGTTGCCTAG [GAGCCCACTAG_LTGcore_AC_RTGcore_CT] (site GAGCCCACTAG) (LTG core: AC, RTG core: CT) | 0.135
36 | GAGCCCAAGTGGGTTCTAACCTGTTGCCTAG [GAGCCCACTAG_LTGcore_AG_RTGcore_CT] (site GAGCCCACTAG) (LTG core: AG, RTG core: CT) | 0.0502
37 | GAGCCCAATTGGGTTCTAACCTGTTGCCTAG [GAGCCCACTAG_LTGcore_AT_RTGcore_CT] (site GAGCCCACTAG) (LTG core: AT, RTG core: CT) | 0.204
38 | GAGCCCACATGGGTTCTAACCTGTTGCCTTG [GAGCCCACTAG_LTGcore_CA_RTGcore_CA] (site GAGCCCACTAG) (LTG core: CA, RTG core: CA) | 0.49
39 | GAGCCCACCTGGGTTCTAACCTGTTGCCTAG [GAGCCCACTAG_LTGcore_CC_RTGcore_CT] (site GAGCCCACTAG) (LTG core: CC, RTG core: CT) | 0.29
40 | GAGCCCACGTGGGTTCTAACCTGTTGCCTCG [GAGCCCACTAG_LTGcore_CG_RTGcore_CG] (site GAGCCCACTAG) (LTG core: CG, RTG core: CG) | 0.282
41 | GAGCCCACTTGGGTTCTAACCTGTTGCCTAA [GAGCCCACTAG_LTGcore_CT_RTGcore_TT] (site GAGCCCACTAG) (LTG core: CT, RTG core: TT) | 0.912
42 | GAGCCCACTTGGGTTCTAACCTGTTGCCTAC [GAGCCCACTAG_LTGcore_CT_RTGcore_GT] (site GAGCCCACTAG) (LTG core: CT, RTG core: GT) | 0.369
43 | GAGCCCACTTGGGTTCTAACCTGTTGCCTAG [GAGCCCACTAG_LTGcore_CT_RTGcore_CT] (site GAGCCCACTAG) (LTG core: CT, RTG core: CT) | 1.45
